Assay in all cases: NCI tumour cell line growth inhibition, 48 h
Assay [1] deals with NCI-H23 lung.
The test system of assay [2] is HCT-15 colon.
Assay [3] concerns HOP-62 NSCLC.
The subject of assay [4] is A549 NSCLC.
Assay [5] has as its system 786-0 renal.
In assay [6] the test system is MCF7 breast.
For assay [7], the system named is HOP-92 NSCLC.
Assay [8] concerns HS 578T breast.
Assay [9] deals with U251 CNS.
For assay [10], the system named is OVCAR-4 ovarian.

Where “and” joins values, the source holds several entries; their conditions need not be identical. Equal entries are not always repeated.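 Test compounds were applied to cells in 96-well plates for 48 hours at 5 doses. GI50 is the concentration that inhibits growth by half. TGI is the concentration that stops growth completely.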 Where only a bound is given, the exact number is not on record here.

For the molecule `COc1ccc(C(=O)/C=C/c2cc(-c3ccc4c(c3)OCO4)n[nH]2)cc1OC`, the GI50 was 4.12 µM in assay [1]; 2.81 µM in assay [2]; 2.08 µM in [3]; 2.7 µM in assay [4]; 3.12 µM in assay [5]; 3.27 µM in assay [6]. In addition, the GI50 is 2.16 µM in [7], 2.69 µM in [8], 1.58 µM in assay [9] and 2.11 µM in assay [10]. The TGI is 19.6 µM in assay [1]; over 100 µM in assay [2]; 5.6 µM in [3]; 15.8 µM in [4]; 11.4 µM in assay [5]; 16.8 µM in [6]. Moreover, the TGI came to 8.11 µM in assay [7], 8.21 µM in assay [8], 5.37 µM in assay [9] and 40.3 µM in assay [10].

As for `Cc1cc(NCc2cc(Nc3ccnc4cc(Cl)ccc34)ccc2F)nc(N2CCSCC2)n1`, the GI50 in assay [1] was 1.78 µM; in [2], 1.54 µM; in assay [3], 1.89 µM; in [4], 2.92 µM; in [5], 1.6 µM; in assay [6] it was 1.64 µM. In addition, the GI50 is 0.998 µM in assay [7], 1.77 µM in [8], 1.76 µM in assay [9] and 1.82 µM in assay [10]. Also, the TGI amounted to 5.24 µM in assay [1]; 3.54 µM in [2]; 5.64 µM in assay [3]; 21.8 µM in [4]; 3.13 µM in assay [5]; 4.18 µM in assay [6]. Moreover, the TGI stood at 2.32 µM in assay [7], 4.98 µM in [8], 3.28 µM in [9] and 5.51 µM in [10].

Consider `CC[C@H]1CN(C)[C@H]2Cc3c([nH]c4ccccc34)C(=O)C[C@H]1C2C(=O)OC` (stereo partly drawn), for which the TGI in [1], in assay [2], in assay [3], in assay [4], in assay [5] and in assay [6] was over 100 µM each time. In addition, the TGI in assay [7], in [8], in assay [9] and in assay [10] was over 100 µM throughout.

Take `CCOC(=O)c1ccccc1SC(C[N+](=O)[O-])c1ccccc1` (stereo not drawn): the GI50 in assay [1] was 12.3 µM; in assay [2], 2.37 µM; in assay [3], 16.9 µM; in assay [4], 5.18 µM; in assay [5], 2.23 µM; in assay [6], 1.07 µM. In addition, the GI50 is 6.94 µM in assay [7], 12.6 µM in assay [8], 12 µM in assay [9] and 12.9 µM in assay [10]. The TGI in assay [1] turned out to be 35.1 µM; in assay [2] it was 6.78 µM; in assay [3], 32.1 µM; in assay [4], 21.6 µM; in assay [5] it was 4.97 µM; in [6], 4.12 µM. In addition, the TGI in assay [7] amounted to 21.9 µM; in [8], 47.1 µM; in assay [9], 24.7 µM; in [10] it was 25.5 µM.

Consider `c1ccc2cc(C[n+]3ccn(Cc4ccc5ccccc5n4)c3)ccc2c1`, for which the GI50 is 0.311 µM and 2.7 µM in assay [1]; 12.3 µM and 53.5 µM in assay [2]; 1.4 µM and 5.05 µM in assay [3]; 2.73 µM and 10.6 µM in assay [5]; 0.353 µM and 2.98 µM in [6]; 0.184 µM and 1.66 µM in assay [7]. Further, the GI50 in [8] was 1.25 µM and 4.49 µM; in [9], 0.406 µM and 3.19 µM; in assay [10], 0.26 µM and 1.43 µM. Besides, the TGI is 3.23 µM and 14.6 µM in [1]; 27.7 µM and > 100 µM in assay [2]; 7.02 µM and 20.3 µM in [3]; 14.1 µM and 24.2 µM in assay [4]; 13 µM and 24.8 µM in assay [5]; 2.36 µM and 13.4 µM in assay [6]. Moreover, the TGI in [8] was 12.2 µM and 20.3 µM; in [9] it was 12.4 µM and 15.2 µM; in assay [10], 4.8 µM and 15.2 µM.

Consider `C=C(C)[C@@H]1CC[C@]2(C(=O)O)CC[C@]3(C)[C@H](CC[C@@H]4[C@@]5(C)C/C(=C/c6cccc(I)c6)C(=O)C(C)(C)[C@@H]5CC[C@]43C)[C@@H]12`, for which the GI50 was 2.49 µM in [1]; 2.63 µM in assay [2]; 3.24 µM in assay [3]; 1.49 µM in [4]; 2.46 µM in [5]; 2.64 µM in assay [6]. The GI50 is 1.72 µM in assay [7], 2.51 µM in assay [8], 1.71 µM in assay [9] and 2.38 µM in [10]. Moreover, the TGI turned out to be 8.44 µM in assay [1]; 10.2 µM in assay [2]; 12.6 µM in [3]; 6.31 µM in assay [4]; 6.72 µM in [5]; 10.5 µM in assay [6]. The TGI in assay [7] was determined as 5.28 µM; in assay [8], 8.75 µM; in assay [9], 3.91 µM; in assay [10], 8.28 µM.

For `CCCCCCCCCCC[C@@H](C[C@H]1OC(=O)[C@H]1CCCCCC)OC(=O)[C@@H](CC(C)C)NC=O`, the GI50 is 7.19 µM in assay [1]; 2.65 µM in assay [2]; 4.14 µM in assay [3]; 13.1 µM in assay [4]; 2.42 µM in assay [5]; 3.07 µM in [6]. In addition, the GI50 in assay [7] is 1.55 µM; in assay [8], 3.81 µM; in [9] it was 2.83 µM; in [10] it was 3.6 µM. Also, the TGI was 67.4 µM in assay [1]; 46.8 µM in [2]; 29.5 µM in assay [3]; over 100 µM in assay [4]; 18.7 µM in assay [5]; 13.8 µM in [6]. Besides, the TGI in assay [7] was determined as 16.1 µM; in assay [8] it was 40.8 µM; in [9] it was 17.2 µM; in [10], 37.7 µM.

Take `O=C(c1ccco1)c1nc2cc(C(F)(F)F)ccc2[n+]([O-])c1C(F)(F)F`: the GI50 in [1] is 35.6 µM; in assay [2], 56.5 µM; in assay [3] it was 71.7 µM; in assay [4], over 100 µM; in [5] it was 83.6 µM; in assay [6] it was 6.57 µM. Also, the GI50 is 36.7 µM in [7], 51.9 µM in assay [8], 37 µM in [9] and 17.9 µM in [10]. The TGI in assay [1], in [2], in assay [3], in assay [4], in assay [5] and in assay [6] was over 100 µM each time. Moreover, the TGI in assay [7] is over 100 µM; in assay [8], over 100 µM; in assay [9], over 100 µM; in assay [10], 55.2 µM.

Source of the values: PubChem BioAssay (NCI).
